In patent publication US9707200B2, “Metabolism-improving agent comprising rare fatty acid” (KYOTO UNIVERSITY, priority 2012, dated 2017):

Assays:
LXR = biological target: T1, LXR (Homo sapiens, UniProt Q13133); assay: Antagonizing action on LXR by luciferase assay; format: cell-based; details: for antagonizing action on LXR (relative luciferase activity): HepG2 cells, fatty acid + T0901317, 24 hr; for lipid synthesis suppressive action by the antagonizing action on LXR: overall finding from SREBP-1c, SREBP-1, SCD-1, FAS, ACC1, 2, triacylglycerol and LXR luciferase measurements in HepG2 cells
T1 construct: expressed in transfected cells; host or cells: HepG2 (human liver cancer-derived)
T1 sequence (Q13133 1-447): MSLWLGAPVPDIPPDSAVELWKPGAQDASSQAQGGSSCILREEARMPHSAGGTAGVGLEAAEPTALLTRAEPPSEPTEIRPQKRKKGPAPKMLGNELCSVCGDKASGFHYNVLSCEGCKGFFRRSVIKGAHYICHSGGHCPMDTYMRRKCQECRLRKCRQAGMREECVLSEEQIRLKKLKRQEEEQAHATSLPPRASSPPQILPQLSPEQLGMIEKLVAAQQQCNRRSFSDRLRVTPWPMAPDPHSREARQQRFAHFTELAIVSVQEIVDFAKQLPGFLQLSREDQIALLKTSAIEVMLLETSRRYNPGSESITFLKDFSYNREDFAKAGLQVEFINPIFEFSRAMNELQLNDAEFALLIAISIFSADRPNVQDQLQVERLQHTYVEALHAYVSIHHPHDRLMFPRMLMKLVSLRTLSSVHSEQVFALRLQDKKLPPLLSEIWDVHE
Method: In addition, the protein expression level of immature and mature SREBP-1c was measured. Cells treated as mentioned above were dispersed in buffer A (250 mM sucrose, 10 mM HEPES-KOH, 10 mM KCl, 1.5 mM MgCl2, 1 mM EDTA-Na, 1 mM EGTA-Na, pH 7.6) containing a protease inhibitor, passed 20 times through a 23 gauge injection needle, and centrifuged (1,000×g, 4° C., 5 min) to separate into supernatant 1 and precipitate 1. The precipitate 1 was re-dissolved in buffer B (20 mM HEPES-KOH, 0.42 M NaCl, 2.5% glycerol, 1.5 mM MgCl2, 1 mM EDTA-Na, 1 mM EGTA-Na, pH 7.6), and centrifuged (10^5×g, 4° C., 15 min). The obtained supernatant 2 was used as a nuclear fraction (including mature form). The supernatant 1 was further centrifuged (10^5×g, 4° C., 15 min), and the obtained precipitate 2 was dissolved in cell lysate (10 mM Tris-HCl, 100 mM NaCl, 1% SDS, 1 mM EDTA-Na, 1 mM EGTA-Na) and used as a membrane fraction (including immature form). Using these as samples, measurement was performed by Western blot method using anti-SREBP-1 polyclonal antibody (Santa Cruz). Using Dual luciferase system (Promega), antagonizing action on LXR was evaluated by luciferase assay. p3xIR1-tk-Luc, pCMX-hLXRa, pRL-CMX were introduced into HepG2 cell. After culture in a 0.1% BSA-containing serum-free medium containing various fatty acids and T0901317 for 24 hr, the luciferase activity was measured.

KKAy mouse = assay: Effect in obesity or diabetes model mouse fed high-fat diet with added fatty acid; format: in vivo; details: for blood glucose level / body weight: vs control group; for body weight: 4 weeks
Method: (1) Using KKAy mouse as obesity or diabetes model mouse, the effect of KetoA, HYA was evaluated. KKAy mice (KKAy/TaJcl, male, 4-week-old, purchased from CLEA Japan, Inc. and individually bred) were preliminarily bred on a commercially available normal diet (ND) for 1 week, divided into 5 groups, and each group was bred on a high-fat diet (HFD) as a basic feed and given a non-addition feed (control group), or a feed added with different amounts of KetoA and HYA for 4 weeks. The KetoA, HYA-added feed was prepared by adding KetoA, HYA to HFD such that the amount to be added was 0.05% (w/w) (0.05% group) or 0.1% (w/w) (0.1% group).
(2) The profile of the body weight and blood glucose level of the KKAy mouse was measured. After the start of the test feed breeding, the oxygen consumption level was measured on day 16-19, an oral glucose loading test was performed on day 24, and the rectal temperature was measured on day 26. The next day of the completion of experimental breeding, the KKAy mouse was dissected, and the organ weight and plasma neutral fat level were measured.

HepG2 cells = assay: Effect on LXR agonist-induced expression of fatty acid synthesis genes, real-time PCR; format: cell-based, human; details: 10 nM T0901317 + 60 μM fatty acid, 24 hr
Method: Using human liver cancer-derived HepG2 cells (cell No.; JCRB1054, the Health Science Research Resources Bank), a suppressive effect on fatty acid synthesis promotion induced by LXR agonist was evaluated by reference to the method of Zaima et al. (Journal of Lipid Research 47, 2712-2717, 2006).
HepG2 cells (2.0×10^5 cells/mL) were cultured in DMEM medium containing 10% FES for 24 hr, and the medium was exchanged with 0.1% BSA-containing DMEM medium containing 10 nM LXR agonist T0901317 (Cayman Chemicals) and 60 μM various fatty acid. After culture for 24 hr, the cells were recovered, and total RNA was extracted using Sepasol reagent (Nacalai Tesque). After DNase treatment, reverse transcription was performed using SuperScriptII (Invitrogen) to give a cDNA solution. Using SYBR Green Mix (Bio-Rad, Richmond, Calif.) and gene-specific primer (Table 1), real-time PCR was performed as follows.
1. Reaction at 96° C., 15 min, 2. reaction at 96° C., 15 sec, 3. reaction at 60° C. for 30 sec, 4. measurement of fluorescence, 5. 2-4 were repeated 40 times, 6. the melting curve was measured from 65° C. to 95° C. at 0.4° C. intervals. As the internal standard, 18S rRNA was used. The genes involved in the fatty acid synthesis as measured were Sterol regulatory element binding protein-1c (SREBP-1c), Stearoyl coenzyme A desaturase-1 (SCD-1), Fatty acid synthase (FAS), and Acetyl CoA carboxylase-1 and -2 (ACC-1, 2). As for the amount of accumulated intracellular TG, the lipid was extracted with chloroform-methanol, and quantified by triglyceride-′E Test Wako (Wako Pure Chemical Industries, Ltd.).

SMILES	antagonizing action on LXR (relative luciferase activity) (LXR)	lipid synthesis suppressive action by the antagonizing action on LXR (LXR)	blood glucose level (KKAy mouse; 0.05% group, at 4 weeks of test diet)	intraperitoneal white fat weight (KKAy mouse; 0.1% group, after 4 weeks)	plasma neutral fat level (KKAy mouse; 0.1% group, after 4 weeks)	blood glucose level (KKAy mouse; 0.1% group, at 4 weeks of test diet)	body weight (KKAy mouse; HFD with 0.05% (w/w) added)	body weight (KKAy mouse; HFD with 0.1% (w/w) added)	oxygen consumption level (KKAy mouse; day 16-19, added-feed group vs control group)	rectal temperature (KKAy mouse; day 26, added-feed group vs control group)	ACC1 mRNA expression induced by LXR agonist (HepG2 cells)	ACC2 mRNA expression induced by LXR agonist (HepG2 cells)	FAS mRNA expression induced by LXR agonist (HepG2 cells)	SCD-1 mRNA expression induced by LXR agonist (HepG2 cells)	suppression of SREBP-1c mRNA expression induced by LXR agonist (HepG2 cells)	blood glucose level (KKAy mouse; added-feed group, amount not specified)
CCCCC/C=C\CC(=O)CCCCCCCCC(=O)O [KetoA, 10-oxo-cis-12-octadecenoic acid]	significantly suppress the action of T0901317	strong lipid synthesis suppressive action	tendency toward suppression of blood glucose increase	significant decrease	significant decrease	stronger, significant hypoglycemic action	body weight increase suppression tendency	significant suppression of body weight increase	increase in the oxygen consumption level	increase in the rectal temperature	down regulation	down regulation	down regulation	down regulation	strong suppressive action	–
CCCCC/C=C\CC(O)CCCCCCCCC(=O)O (stereo not drawn) [HYA, 10-hydroxy-cis-12-octadecenoic acid]	significantly suppress the action of T0901317	strong lipid synthesis suppressive action	–	–	–	–	significant suppression of body weight increase	–	–	–	down regulation	down regulation	down regulation	down regulation	strong suppressive action	tendency toward suppression of blood glucose level increase
